Patent publication US20110071225A1, “METHOD FOR OBTAINING A SEQUOYITOL-CONTAINING EXTRACT FROM GENUS NEPHROLEPIS AND USES THEREOF” (GUANGZHOU WELMAN NEW DRUG R&D CO., LTD., priority 2008, published 2011)

Experiments:
Solubility in water = type: physicochemical
Protocol: Sequoyitol was dissolved in water and sterilized by filtration. Solutions for injection were prepared according to the operation procedure of solutions for injection. Powder for injection was prepared according to the operation procedure of lyophilized powder for injection.

diabetes models = conditions: sequoyitol isolated from Taxus chinensis; cited from earlier work
[1] = sequoyitol isolated from Taxus chinensis; cited from earlier work
[2] = system: elevated level of blood glucose induced by alloxan in mice; test: Effect on the elevated level of blood glucose induced by alloxan in mice; type: in vivo; conditions: 75 mg/kg via gavage, 7 days
Protocol: 80 male mice weighed 22˜25 g were used. 20 mice were randomly taken as the blank group. Others were injected intravenously with alloxan via caudal vein at a dose of 65 mg/kg body weight, and then modeled according to established methods. The mice were divided into 3 groups according to their level of blood glucose, in which 2 groups were administered via gavage with 60 mg/kg of the Nephrolepis auriculata extract, 75 mg/kg of phenformin (positive control) respectively for consecutive 7 days, in a volume of 0.1 ml/10 g body weight. The same volume of distilled water was administered to the blank group and the control group. Blood glucose was determined using glucose oxidase method.

CO[C@H]1[C@H](O)[C@@H](O)[C@@H](O)[C@@H](O)[C@@H]1O [Sequoyitol, sequoyitol]
Solubility in water (Solubility in water): well soluble | Absorption of glucose (diabetes models): inhibits | Breakdown of hepatic glycogen (diabetes models): inhibits | High glycemia in diabetes models (diabetes models): remarkably decreases | Toxicity [1]: very low toxicity

[H]/N=C(/N)N/C(=N/[H])NCCc1ccccc1 [phenformin]
Decrease of hyperglycemia induced by alloxan vs control group [2]: 152.8 mg/dL
